# Active and inactive are the calls of the source.
# Columns and labels:
# [1] = biological target: E3 ubiquitin-protein ligase Mdm2/Protein Mdm4 (Homo sapiens, UniProt O15151+Q00987); assay: disruption of Mdm2/MdmX protein binding – luminescence detection, dose response (AID 504593); type: functional
# [2] = biological target: Luciferin 4-monooxygenase (Photinus pyralis, UniProt P08659); assay: Counter Screen for Luciferase-based Assay Positives. [Related pubchem assays: 620, 618, 411 ]
# HT-1080 = assay: HT1080 cell viability loss – fluorescence readout (AID 620); type: functional, cell-based; conditions: Homo sapiens
# [3] = biological target: Aryl hydrocarbon receptor (Homo sapiens, UniProt P35869); assay: Luminescence-based cell-based high throughput dose response assay for activators of the Aryl Hydrocarbon Receptor (AHR). [Related pubchem assays: 2796 (Primary screen (AHR activators in singlicate)), 2845 (Confirmation screen (AHR activators in triplicate)), 434939 (Counterscreen (PXR activators in triplicate)), 2804 (Summary (AHR activators))]; type: ADME
# [4] = biological target: T1, Ubiquitin-conjugating enzyme E2 N (Homo sapiens, UniProt P61088); type: functional;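 note: Dose-response confirmation in a TR-FRET assay detecting UBC13-driven polyubiquitin chain formation, inhibition measured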
# T1 sequence (P61088 whole entry): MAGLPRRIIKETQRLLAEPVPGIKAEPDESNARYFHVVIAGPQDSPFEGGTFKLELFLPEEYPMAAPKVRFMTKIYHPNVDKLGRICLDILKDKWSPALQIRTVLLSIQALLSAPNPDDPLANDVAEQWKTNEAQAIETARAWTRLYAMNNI
# [5] = Luminescence Cell-Based Dose Response HTS to Identify Inhibitors of 5'UTR Stem-Loop Driven Prion Protein mRNA Translation in H4 Neuroglioblastoma Cells. [Related pubchem assays: 1827 (Project Summary), 1813 (Primary HTS)]; type: functional
# [6] = biological target: T2, Apoptotic protease-activating factor 1 (Homo sapiens, UniProt O14727); type: functional
# T2 sequence (O14727 whole entry): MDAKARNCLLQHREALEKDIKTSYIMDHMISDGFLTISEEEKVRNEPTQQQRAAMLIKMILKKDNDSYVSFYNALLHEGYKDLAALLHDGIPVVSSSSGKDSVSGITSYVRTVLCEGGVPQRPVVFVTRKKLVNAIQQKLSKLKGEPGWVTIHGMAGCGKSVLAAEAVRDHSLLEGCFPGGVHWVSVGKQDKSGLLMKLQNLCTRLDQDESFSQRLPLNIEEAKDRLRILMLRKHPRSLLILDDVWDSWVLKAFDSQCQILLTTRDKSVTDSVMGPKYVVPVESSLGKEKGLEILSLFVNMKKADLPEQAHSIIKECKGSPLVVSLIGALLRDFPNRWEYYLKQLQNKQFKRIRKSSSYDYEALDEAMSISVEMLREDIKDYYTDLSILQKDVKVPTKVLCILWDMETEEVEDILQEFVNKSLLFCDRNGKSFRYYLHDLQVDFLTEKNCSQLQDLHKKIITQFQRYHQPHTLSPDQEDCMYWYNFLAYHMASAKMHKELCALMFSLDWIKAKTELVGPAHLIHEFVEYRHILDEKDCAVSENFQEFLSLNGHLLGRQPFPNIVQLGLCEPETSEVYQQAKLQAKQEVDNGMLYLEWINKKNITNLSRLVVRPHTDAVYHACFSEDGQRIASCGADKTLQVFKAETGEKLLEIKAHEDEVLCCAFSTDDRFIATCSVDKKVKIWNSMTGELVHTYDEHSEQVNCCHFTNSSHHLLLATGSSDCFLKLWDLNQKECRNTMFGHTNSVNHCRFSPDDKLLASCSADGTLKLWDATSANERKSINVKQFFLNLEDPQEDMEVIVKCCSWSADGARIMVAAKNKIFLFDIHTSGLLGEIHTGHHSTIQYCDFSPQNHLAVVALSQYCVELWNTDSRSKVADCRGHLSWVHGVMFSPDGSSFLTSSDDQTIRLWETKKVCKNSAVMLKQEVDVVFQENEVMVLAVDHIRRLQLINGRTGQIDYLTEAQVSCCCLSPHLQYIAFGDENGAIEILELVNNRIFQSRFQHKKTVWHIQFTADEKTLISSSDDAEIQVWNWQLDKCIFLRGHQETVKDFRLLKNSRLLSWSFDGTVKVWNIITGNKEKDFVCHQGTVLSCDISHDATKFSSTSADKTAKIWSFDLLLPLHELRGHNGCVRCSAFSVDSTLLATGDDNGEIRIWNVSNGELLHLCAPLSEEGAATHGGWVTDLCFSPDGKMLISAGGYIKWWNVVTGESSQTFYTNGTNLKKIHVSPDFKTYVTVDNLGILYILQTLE
# [7] = biological target: G-protein coupled receptor 55 (Homo sapiens, UniProt Q9Y2T6); assay: inhibition of LPI-stimulated GPR55 beta-arrestin translocation – imaging, U2OS, beta-arrestin-GFP, LPI agonist, primary screen (AID 2013); type: functional;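 note: antagonist potency measured as reduced agonist-driven arrestin aggregation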
# [8] = luciferase reporter signal suppression in cells – H4 neuroglioma cells, luminescence, dose response (AID 1990); type: functional, cell-based
# [9] = alpha-synuclein stem-loop luciferase translation blockers – H4 neuroglioma cells, luminescence, confirmation (AID 1988); type: functional, cell-based
# Prothrombin = Prothrombin (Bos taurus, UniProt P00735); assay: thrombin protease inhibitors – biochemical, fluorescence polarization, uHTS hits, dose response (AID 602369); type: functional
# [10] = biological target: 72 kDa type IV collagenase (Homo sapiens, UniProt P08253); assay: Dose Response validation of uHTS RPN11 inhibitor hits using a MMP-2 Fluorescence assay.; type: functional
# [11] = biological target: T3, Voltage-gated N-type calcium channel alpha-1B subunit/Amyloid beta A4 precursor protein-binding family A member 1 (Homo sapiens, UniProt Q00975+Q02410); type: protein assay
# Cysteine protease ATG4B = biological target: T4, Cysteine protease ATG4B (Homo sapiens, UniProt Q9Y4P1); type: functional;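 note: Fluorescence-based dose-response confirmation assay measuring inhibition of ATG4B activity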
# T4 sequence (Q9Y4P1 whole entry): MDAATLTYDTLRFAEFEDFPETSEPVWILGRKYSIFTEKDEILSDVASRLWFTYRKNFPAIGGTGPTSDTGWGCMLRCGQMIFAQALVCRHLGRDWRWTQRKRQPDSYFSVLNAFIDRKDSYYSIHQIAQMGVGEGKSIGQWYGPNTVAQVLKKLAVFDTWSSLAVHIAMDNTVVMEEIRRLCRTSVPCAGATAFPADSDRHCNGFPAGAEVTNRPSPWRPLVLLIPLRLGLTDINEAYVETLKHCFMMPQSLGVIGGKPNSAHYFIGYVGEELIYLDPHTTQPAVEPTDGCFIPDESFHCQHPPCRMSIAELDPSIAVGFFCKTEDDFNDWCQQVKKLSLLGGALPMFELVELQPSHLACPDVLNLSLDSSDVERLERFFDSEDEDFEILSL
# [12] = biological target: 26S proteasome non-ATPase regulatory subunit 14 (Homo sapiens, UniProt O00487); assay: inhibition of proteasome subunit RPN11 – biochemical, fluorescence polarization, uHTS hits, confirmation (AID 602368); type: functional
# [13] = biological target: T3, Voltage-gated N-type calcium channel alpha-1B subunit/Amyloid beta A4 precursor protein-binding family A member 1; type: protein assay; remark: listed apart in the source
# [14] = biological target: T5, Histone-lysine N-methyltransferase NSD2 (Homo sapiens, UniProt O96028); type: biochemical
# T5 sequence (O96028 whole entry): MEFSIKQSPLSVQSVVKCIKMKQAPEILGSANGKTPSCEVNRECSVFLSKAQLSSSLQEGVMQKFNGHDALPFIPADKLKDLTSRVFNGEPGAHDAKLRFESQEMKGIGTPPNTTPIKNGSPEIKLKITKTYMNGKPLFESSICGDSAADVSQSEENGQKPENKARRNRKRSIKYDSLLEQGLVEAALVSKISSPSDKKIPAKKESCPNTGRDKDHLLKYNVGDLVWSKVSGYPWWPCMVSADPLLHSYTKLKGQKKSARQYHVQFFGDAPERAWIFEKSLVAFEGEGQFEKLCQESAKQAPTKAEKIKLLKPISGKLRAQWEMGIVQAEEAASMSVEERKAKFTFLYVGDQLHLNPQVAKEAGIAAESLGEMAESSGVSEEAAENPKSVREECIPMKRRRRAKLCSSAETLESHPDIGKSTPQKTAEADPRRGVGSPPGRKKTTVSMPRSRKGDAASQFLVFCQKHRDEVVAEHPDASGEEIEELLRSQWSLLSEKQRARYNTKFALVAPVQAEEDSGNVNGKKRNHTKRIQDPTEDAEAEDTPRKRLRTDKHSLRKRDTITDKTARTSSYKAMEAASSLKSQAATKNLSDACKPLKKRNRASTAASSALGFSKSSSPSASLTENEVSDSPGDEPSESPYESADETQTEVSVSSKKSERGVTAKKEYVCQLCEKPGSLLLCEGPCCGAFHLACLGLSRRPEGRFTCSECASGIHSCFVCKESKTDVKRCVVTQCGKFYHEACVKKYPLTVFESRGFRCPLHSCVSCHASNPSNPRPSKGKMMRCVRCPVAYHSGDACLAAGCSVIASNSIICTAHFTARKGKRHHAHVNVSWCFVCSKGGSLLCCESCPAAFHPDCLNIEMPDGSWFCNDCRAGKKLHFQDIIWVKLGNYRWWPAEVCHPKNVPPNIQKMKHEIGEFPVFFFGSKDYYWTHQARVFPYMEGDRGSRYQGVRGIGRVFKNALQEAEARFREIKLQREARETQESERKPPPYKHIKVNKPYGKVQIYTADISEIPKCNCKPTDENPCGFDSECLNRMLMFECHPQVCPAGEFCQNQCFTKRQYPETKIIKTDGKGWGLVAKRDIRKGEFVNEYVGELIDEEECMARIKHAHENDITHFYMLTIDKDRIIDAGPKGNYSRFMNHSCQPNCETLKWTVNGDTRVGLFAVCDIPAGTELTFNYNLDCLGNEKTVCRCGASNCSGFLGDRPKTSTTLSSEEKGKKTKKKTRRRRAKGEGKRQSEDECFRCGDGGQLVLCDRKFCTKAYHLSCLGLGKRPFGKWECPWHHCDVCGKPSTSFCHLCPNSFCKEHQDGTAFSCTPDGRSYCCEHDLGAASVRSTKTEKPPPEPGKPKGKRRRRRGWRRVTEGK
# Aminopeptidase N = biological target: T6, Aminopeptidase N (Plasmodium falciparum FcB1/Columbia, UniProt O96935); assay: malaria alanyl aminopeptidase activity blockers – biochemical, fluorogenic H-Leu-NHMec substrate, 1536-well (AID 1445); parameters: species or system Plasmodium falciparum 3D7, 3D7
# T6 sequence (O96935 whole entry): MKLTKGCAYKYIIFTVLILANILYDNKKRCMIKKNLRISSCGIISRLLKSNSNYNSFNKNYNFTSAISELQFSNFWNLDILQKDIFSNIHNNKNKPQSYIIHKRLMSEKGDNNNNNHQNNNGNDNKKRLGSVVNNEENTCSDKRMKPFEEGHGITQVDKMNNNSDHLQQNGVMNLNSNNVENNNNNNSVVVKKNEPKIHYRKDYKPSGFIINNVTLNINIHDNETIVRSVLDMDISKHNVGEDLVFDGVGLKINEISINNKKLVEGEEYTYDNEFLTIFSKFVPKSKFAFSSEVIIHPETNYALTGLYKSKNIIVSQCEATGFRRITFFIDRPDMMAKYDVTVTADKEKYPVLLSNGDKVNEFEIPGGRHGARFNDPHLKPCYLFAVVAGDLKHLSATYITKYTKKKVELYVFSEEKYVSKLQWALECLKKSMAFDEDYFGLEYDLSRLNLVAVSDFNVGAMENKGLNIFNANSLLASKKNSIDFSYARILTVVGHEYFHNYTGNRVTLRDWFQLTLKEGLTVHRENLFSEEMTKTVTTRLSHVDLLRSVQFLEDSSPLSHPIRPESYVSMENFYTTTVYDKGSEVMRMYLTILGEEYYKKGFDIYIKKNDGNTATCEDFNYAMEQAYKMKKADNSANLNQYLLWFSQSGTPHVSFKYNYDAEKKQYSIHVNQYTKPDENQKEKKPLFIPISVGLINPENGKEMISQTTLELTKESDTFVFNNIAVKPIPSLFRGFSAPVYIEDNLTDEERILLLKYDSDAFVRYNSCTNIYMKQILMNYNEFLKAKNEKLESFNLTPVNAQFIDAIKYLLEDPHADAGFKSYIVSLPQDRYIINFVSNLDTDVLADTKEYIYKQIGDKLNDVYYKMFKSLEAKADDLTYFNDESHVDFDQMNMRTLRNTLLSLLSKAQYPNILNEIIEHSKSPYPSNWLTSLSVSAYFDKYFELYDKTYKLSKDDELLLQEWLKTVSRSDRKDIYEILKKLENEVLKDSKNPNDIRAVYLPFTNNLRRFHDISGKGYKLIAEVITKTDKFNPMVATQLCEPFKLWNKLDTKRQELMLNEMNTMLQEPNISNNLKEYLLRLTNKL
# Phospholipase A2 = Phospholipase A2 (Homo sapiens, UniProt P04054); type: functional;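 note: confirmatory dose-response counterscreen on phospholipase A2, testing hits that came from an ultra-high-throughput screen for ATG4B inhibitors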
# T3 sequence (Q00975 whole entry): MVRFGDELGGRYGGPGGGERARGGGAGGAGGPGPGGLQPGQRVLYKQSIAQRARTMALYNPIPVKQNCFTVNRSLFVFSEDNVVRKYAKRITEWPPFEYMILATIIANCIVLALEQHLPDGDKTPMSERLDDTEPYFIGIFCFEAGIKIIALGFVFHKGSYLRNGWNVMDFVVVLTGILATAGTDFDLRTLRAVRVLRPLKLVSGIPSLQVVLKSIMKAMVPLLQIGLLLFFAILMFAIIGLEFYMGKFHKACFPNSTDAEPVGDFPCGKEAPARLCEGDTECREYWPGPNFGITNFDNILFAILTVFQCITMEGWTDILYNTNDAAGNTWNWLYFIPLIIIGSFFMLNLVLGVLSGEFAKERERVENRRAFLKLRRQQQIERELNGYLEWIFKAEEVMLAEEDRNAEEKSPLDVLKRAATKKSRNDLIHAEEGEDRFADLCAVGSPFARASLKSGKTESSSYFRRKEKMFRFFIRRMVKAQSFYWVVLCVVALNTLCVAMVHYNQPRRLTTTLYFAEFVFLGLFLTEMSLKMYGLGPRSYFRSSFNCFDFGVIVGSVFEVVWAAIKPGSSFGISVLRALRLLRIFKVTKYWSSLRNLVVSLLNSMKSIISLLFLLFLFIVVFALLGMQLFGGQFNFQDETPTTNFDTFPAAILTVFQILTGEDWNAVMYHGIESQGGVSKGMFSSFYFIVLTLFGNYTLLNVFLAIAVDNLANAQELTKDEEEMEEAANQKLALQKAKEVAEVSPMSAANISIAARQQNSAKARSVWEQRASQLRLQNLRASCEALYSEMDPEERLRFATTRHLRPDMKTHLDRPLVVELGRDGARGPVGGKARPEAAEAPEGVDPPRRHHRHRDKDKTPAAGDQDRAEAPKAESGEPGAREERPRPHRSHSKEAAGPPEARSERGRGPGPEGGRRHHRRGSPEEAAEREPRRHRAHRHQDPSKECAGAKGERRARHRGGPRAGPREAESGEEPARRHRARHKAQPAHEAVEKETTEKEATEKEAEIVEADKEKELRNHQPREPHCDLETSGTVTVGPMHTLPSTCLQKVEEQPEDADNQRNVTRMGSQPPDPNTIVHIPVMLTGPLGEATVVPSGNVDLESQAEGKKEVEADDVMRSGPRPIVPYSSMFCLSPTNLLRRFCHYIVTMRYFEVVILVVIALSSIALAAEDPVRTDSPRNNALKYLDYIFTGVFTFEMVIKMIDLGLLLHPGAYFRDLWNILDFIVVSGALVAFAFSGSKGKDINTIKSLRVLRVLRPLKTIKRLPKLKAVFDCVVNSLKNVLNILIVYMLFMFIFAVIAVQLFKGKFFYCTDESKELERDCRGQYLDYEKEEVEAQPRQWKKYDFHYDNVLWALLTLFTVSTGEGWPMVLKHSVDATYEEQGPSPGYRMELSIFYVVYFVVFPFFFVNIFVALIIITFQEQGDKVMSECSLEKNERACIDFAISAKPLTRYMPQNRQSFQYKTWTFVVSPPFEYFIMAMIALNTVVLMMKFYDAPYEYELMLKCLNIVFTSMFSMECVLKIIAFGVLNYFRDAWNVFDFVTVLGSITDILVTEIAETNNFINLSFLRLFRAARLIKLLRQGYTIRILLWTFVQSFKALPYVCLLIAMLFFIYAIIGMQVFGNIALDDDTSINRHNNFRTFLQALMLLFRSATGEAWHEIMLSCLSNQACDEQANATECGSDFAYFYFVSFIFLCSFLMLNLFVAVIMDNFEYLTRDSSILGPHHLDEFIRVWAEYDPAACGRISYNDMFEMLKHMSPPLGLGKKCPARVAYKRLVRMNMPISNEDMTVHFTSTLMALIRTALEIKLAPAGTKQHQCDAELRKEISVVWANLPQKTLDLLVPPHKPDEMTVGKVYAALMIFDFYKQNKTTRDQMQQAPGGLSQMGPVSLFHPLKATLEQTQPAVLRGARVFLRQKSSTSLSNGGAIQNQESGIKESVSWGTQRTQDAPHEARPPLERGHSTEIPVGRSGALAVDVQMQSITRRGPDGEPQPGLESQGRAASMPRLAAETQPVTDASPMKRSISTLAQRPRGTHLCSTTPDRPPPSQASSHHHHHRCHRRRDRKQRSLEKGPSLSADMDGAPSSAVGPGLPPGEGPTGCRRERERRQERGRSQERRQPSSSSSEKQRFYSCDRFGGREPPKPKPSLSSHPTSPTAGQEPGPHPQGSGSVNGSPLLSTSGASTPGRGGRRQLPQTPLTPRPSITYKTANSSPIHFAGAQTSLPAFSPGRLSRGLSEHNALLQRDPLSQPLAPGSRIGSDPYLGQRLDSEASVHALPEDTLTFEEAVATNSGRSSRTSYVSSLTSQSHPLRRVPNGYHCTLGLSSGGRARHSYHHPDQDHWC
# T3 sequence (Q02410 whole entry): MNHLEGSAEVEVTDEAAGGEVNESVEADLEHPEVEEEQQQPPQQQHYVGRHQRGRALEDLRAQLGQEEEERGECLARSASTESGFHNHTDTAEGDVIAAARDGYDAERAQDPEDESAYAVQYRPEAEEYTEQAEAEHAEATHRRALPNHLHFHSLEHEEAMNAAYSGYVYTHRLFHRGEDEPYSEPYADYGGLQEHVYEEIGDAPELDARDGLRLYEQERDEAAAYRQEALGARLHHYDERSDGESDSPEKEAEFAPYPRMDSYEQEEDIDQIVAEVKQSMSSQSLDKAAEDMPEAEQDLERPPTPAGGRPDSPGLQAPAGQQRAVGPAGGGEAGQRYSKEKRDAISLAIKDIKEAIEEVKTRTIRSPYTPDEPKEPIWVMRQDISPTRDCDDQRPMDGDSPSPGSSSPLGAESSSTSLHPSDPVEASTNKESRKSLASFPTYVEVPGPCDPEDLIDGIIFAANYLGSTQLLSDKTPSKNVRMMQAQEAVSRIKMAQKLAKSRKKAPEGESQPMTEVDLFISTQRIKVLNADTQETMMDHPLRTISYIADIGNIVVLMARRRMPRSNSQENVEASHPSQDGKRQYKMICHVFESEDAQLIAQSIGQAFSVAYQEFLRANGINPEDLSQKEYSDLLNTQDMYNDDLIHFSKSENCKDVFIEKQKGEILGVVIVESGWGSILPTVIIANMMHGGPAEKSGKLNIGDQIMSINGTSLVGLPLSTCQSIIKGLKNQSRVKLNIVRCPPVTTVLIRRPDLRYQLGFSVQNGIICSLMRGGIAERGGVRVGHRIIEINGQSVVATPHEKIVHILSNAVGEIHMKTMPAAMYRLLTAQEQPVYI
# Sequence of Luciferin 4-monooxygenase (P08659 whole entry): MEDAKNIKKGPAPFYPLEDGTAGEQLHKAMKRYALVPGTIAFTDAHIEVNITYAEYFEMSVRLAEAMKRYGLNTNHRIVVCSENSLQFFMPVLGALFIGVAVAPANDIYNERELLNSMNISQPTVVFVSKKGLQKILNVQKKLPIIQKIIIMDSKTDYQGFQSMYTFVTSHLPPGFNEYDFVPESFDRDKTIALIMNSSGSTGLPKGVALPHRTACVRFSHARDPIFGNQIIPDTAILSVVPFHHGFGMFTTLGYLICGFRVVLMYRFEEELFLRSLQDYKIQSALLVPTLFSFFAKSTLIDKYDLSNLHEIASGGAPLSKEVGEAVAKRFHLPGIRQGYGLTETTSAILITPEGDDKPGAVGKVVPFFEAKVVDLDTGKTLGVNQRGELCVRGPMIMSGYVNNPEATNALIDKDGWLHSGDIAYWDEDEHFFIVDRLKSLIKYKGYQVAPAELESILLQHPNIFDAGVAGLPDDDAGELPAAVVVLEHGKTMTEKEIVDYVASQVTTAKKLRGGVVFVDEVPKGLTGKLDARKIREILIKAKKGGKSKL
# Sequence of 72 kDa type IV collagenase (P08253 whole entry): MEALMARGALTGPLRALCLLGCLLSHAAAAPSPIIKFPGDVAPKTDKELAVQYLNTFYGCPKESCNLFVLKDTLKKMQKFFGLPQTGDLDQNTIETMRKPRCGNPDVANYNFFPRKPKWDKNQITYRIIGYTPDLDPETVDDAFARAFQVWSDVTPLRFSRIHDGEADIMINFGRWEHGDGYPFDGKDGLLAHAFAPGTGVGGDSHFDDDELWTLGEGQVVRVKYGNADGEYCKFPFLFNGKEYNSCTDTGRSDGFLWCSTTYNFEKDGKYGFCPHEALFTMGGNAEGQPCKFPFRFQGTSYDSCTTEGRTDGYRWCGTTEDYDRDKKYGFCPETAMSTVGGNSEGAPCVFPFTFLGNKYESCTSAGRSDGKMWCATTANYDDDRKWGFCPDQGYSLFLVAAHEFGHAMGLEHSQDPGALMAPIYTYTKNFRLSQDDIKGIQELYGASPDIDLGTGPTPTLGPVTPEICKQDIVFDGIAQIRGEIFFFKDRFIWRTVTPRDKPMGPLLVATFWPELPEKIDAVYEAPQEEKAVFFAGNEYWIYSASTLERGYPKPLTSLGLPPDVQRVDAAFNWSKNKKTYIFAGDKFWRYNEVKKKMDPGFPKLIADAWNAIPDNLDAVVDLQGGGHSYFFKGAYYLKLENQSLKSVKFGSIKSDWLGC
# Sequence of 26S proteasome non-ATPase regulatory subunit 14 (O00487 whole entry): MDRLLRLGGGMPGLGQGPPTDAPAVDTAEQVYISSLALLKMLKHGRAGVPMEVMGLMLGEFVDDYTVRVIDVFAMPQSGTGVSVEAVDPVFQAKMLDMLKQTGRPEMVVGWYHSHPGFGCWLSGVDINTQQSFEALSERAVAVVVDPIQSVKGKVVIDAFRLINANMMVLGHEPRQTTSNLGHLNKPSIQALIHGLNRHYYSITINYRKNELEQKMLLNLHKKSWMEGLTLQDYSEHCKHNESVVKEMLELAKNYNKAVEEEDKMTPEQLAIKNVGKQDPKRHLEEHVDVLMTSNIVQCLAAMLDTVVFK
# Sequence of G-protein coupled receptor 55 (Q9Y2T6 whole entry): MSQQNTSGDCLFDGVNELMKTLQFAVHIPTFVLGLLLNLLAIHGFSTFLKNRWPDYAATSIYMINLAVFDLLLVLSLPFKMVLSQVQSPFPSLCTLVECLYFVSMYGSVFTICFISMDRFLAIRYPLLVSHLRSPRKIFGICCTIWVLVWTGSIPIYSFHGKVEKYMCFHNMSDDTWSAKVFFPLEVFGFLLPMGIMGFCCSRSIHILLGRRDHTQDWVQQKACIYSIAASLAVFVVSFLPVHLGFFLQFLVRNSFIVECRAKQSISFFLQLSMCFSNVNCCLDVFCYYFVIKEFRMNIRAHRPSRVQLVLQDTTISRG
smiles,measurement,setting,value
Cc1nc(NC2=NCN(CCCN3CCOCC3)CN2)nc2c(C)cccc12,IC50,[1],3.92 µM (active)
same,EC50,[2],3.36 µM (active)
same,EC50,HT-1080,51.5 µM (not active)
same,EC50,[3],12.1 µM (not active)
CN1Cc2c(N3CCOCC3)nc3sc(C(=O)c4ccc(Br)cc4)c(N)c3c2CC1(C)C,IC50,[4],> 20 µM (inactive)
same,EC50,[5],11.6 µM (active)
same,IC50,[6],15.8 µM (active)
same,IC50,[7],3.9 µM (active)
same,EC50,[8],10.4 µM (active)
same,EC50,[9],8.58 µM (active)
CCc1ccc(-n2cccc2/C=C2/C(=N)N3C(=NC2=O)SN=C3S(C)(=O)=O)cc1,IC50,Prothrombin,45.8 µM (active)
same,IC50,[10],30.9 µM (active)
same,IC50,[11],> 50 µM (inactive)
same,IC50,Cysteine protease ATG4B,11.2 µM (active)
same,IC50,[12],21.8 µM (active)
same,IC50,[13],7.3 µM (active)
same,AC50,[14],11.5 µM (active)
same,IC50,Aminopeptidase N,34.4 µM (active)
same,IC50,Phospholipase A2,12 µM (active)

# From ChEMBL document CHEMBL1201862, “PubChem BioAssay data set” (2004)
